Test results: patent publication US20030032651A1 (priority 2001, published 2003)

Columns and labels:
[1] = Rat hindpaw withdrawal latency (HWL) to thermal stimulation (hot-plate test, 52° C.); type: in vivo; conditions: Day 6, i.t. every 12 hrs: morphine 8 μg, or rotated with nociceptin 10 nmol every 2 days
[2] = Rat hindpaw withdrawal latency (HWL) to mechanical stimulation (Randall Selitto Test); type: in vivo; conditions: Day 14, i.t. every 12 hrs, morphine 8 μg rotated with nociceptin 10 nmol every 2 days
[3] = Development of tolerance to intrathecal analgesia in rat HWL study (thermal and mechanical); type: in vivo; conditions: drug alone i.t. every 12 hrs
[4] = after parenteral injection; cited from earlier work

CN1CC[C@]23c4c5ccc(O)c4O[C@H]2[C@@H](O)C=C[C@H]3[C@H]1C5 [Morphine, morphine]
% Changes of HWL to Thermal Stimulation 10 Minutes After Intrathecal Injection, Left ([1]; left hindpaw): −1.30 ± 2.36% | % Changes of HWL to Thermal Stimulation 10 Minutes After Intrathecal Injection, Right ([1]; right hindpaw): 0.51 ± 1.61% | % Changes of HWL to Mechanical Stimulation 10 Minutes After Intrathecal Injection, Left [2]: −0.84 ± 1.61% | day by which total/complete tolerance exists [3]: ≤ 6 days

O=C1NCN(c2ccccc2)C12CCN([C@H]1CC[C@@H]3CCCc4cccc1c43)CC2 [RO 64-6198, (1S,3aS)8-(2,3,3a,4,5,6-hexahydro-1H-phenalen-1-yl)-1-phenyl-1,3,8-triaza-spiro[4,5]decan-4-one]
brain penetration [4]: high degree of brain penetration
